From ChEMBL document CHEMBL1926605, “Synthesis, structure-activity relationships, and mechanism of action of anti-HIV-1 lamellarin α 20-sulfate analogues” (Bioorg Med Chem, 2011) come the findings set out here.

pIC50: −log10 of the molar value. Calls of active or inactive are those of the source. No cut-off for these calls is given here. Bounds are passed on as bounds.

The subject of series [1] is Human immunodeficiency virus 1. Kind of series: Antiviral activity against HIV1 in COS7 cells expressing HXB2 Env, R8.91, and pTY-EFnLacZ assessed as reduction of viral vector infection into human HeLa cells expressing CD4 at 100 uM after 2 days using 5-bromo-4-chloro-3-indolyl-beta-D-galactopyranoside staining. Type of series: functional, organism-based.
The test system of series [2] is Human immunodeficiency virus 1. The series can be described thus: Antiviral activity against LacZ-containing HIV1 in COS7 cells expressing HXB2 Env, R8.91, and pTY-EFnLacZ assessed as reduction of viral vector infection into human HeLa cells expressing CD4 after 2 days using 5-bromo-4-chloro-3-indolyl-beta-D-galactopyranoside staining. Type of series: functional, organism-based. To be noted: Human immunodeficiency virus 1, HeLa, 48 h.

The subject of series [3] is HeLa. The series can be described thus: Cytotoxicity against human HeLa cells expressing CD4 after 24 hrs by WST-1 assay. The series is classed as cell-based.
The subject of series [4] is HeLa. The series can be described thus: Cellular uptake in human HeLa cells expressing CD4 at 100 uM after 24 hrs by confocal laser scanning microscopy analysis. Type of series: ADME, cell-based.
For series [5], the system named is HeLa. Kind of series: Cellular uptake in human HeLa cells expressing CD4 at 100 uM after 24 hrs by confocal laser scanning microscopy analysis in presence of methanol. Type of series: ADME, cell-based.
Series [6] relates to Human immunodeficiency virus 1. The series can be described thus: Antiviral activity against HIV1 infected in MAGIC5 cells co-cultured with Cos7 cells assessed as inhibition of viral envelope mediated cell-cell fusion at 100 uM after 24 hrs by beta galactosidase assay. Type of series: functional, organism-based. To be noted: COS-7.
For series [7], the system named is HeLa. The series can be described thus: Cytotoxicity against human HeLa cells by MTT assay. The series is classed as cell-based. In general terms: Tetrazolium dyes change colour on reduction, which living cells bring about.

In the case of `COc1cc2ccn3c(c(-c4ccc(OC)c(OS(=O)(=O)[O-])c4)c4c5cc(OC)c(OS(=O)(=O)[O-])cc5oc(=O)c43)c2cc1OC.[Na+].[Na+]`, the outcome in series [1] was Active. The pIC50 in series [2] was 4.82; in series [3] it was less than 4.00. Moreover, the Drug uptake entry in series [4] is on record as “Not Active”; in series [5], “Active”. In series [6], the inhibition result is “Active”.

Turning to `COc1ccc(-c2c3n(c4c(=O)oc5cc(OS(=O)(=O)[O-])c(OC)cc5c24)CCc2cc(OC)c(OC)cc2-3)cc1O.[Na+]`, the outcome in series [1] was Active. For the same molecule, the pIC50 was 4.82 in series [2] and less than 4.00 in series [3]. Further, the Drug uptake entry in series [4] is on record as “Not Active”; in series [5], “Active”. In addition, the inhibition result in series [6] was “Active”.

Consider `COc1ccc(-c2c3c4cc(OC)c(O)cc4oc(=O)c3n3ccc4cc(OC)c(OC)cc4c23)cc1O`, for which the pIC50 in series [2] was less than 4.00. Also, the Drug uptake result in series [4] and in series [5] was “Active” each time.

Turning to `COc1ccc(-c2cn(CCc3ccc(OC)c(OC)c3)c3c(=O)oc4cc(OS(=O)(=O)O)c(OC)cc4c23)cc1O`, in series [2], the pIC50 was less than 4.00. Further, the inhibition result in series [6] was “inactive”.

Take `COc1cc2c(cc1O)oc(=O)c1c2c(-c2ccc(OC)c(OS(=O)(=O)[O-])c2)c2c3cc(OC)c(OC)cc3ccn21.[Na+]`: in series [1], the outcome was Active. Besides, the pIC50 is 4.84 in series [2] and less than 4.00 in series [3]. Moreover, the Drug uptake entry in series [4] is reported as “Not Active”; in series [5], “Active”. The inhibition result in series [6] was “Active”.

Turning to `COc1ccc(-c2c3c4cc(OC)c(OS(=O)(=O)[O-])cc4oc(=O)c3n3ccc4cc(OS(=O)(=O)[O-])c(OC)cc4c23)cc1OS(=O)(=O)[O-].[Na+].[Na+].[Na+]`, the result in series [1] was Active. Also, the pIC50 is 4.68 in series [2] and less than 4.00 in series [3]. For the same molecule, the Drug uptake result in series [4] was “Not Active”; in series [5], “Active”. For the same molecule, in series [6], the inhibition result is “Active”.

In the case of `COc1ccc(-c2c3c4cc(OC)c(OS(=O)(=O)[O-])cc4oc(=O)c3n3ccc4cc(OC)c(OC)cc4c23)cc1O.[Na+]`, in series [1], the outcome was Active. The figures for the pIC50 in series [2] and in series [3] were 4.89 and less than 4.00, respectively. The Drug uptake result in series [4] is reported as “Not Active”; in series [5], “Active”. Further, in series [6], the inhibition result is “Active”. For the same molecule, the Activity in series [7] stood at 274 µM.

A word on the pIC50: it is −log10 of the IC50, conventionally taken in molar units.
